Assay results from US20060258598A1, “Alpha-keto carbonyl calpain inhibitors” (priority 2003, published 2006).

Tests used:
[1] = target: T1, human μ-calpain (Homo sapiens, UniProt P07384); experiment: Enzymatic calpain inhibition assay; assay type: biochemical; details: substrate Suc-Leu-Tyr-AMC, read-out: Calp I IC50
T1 construct: purchased Calbiochem
T1 sequence (P07384 1-714): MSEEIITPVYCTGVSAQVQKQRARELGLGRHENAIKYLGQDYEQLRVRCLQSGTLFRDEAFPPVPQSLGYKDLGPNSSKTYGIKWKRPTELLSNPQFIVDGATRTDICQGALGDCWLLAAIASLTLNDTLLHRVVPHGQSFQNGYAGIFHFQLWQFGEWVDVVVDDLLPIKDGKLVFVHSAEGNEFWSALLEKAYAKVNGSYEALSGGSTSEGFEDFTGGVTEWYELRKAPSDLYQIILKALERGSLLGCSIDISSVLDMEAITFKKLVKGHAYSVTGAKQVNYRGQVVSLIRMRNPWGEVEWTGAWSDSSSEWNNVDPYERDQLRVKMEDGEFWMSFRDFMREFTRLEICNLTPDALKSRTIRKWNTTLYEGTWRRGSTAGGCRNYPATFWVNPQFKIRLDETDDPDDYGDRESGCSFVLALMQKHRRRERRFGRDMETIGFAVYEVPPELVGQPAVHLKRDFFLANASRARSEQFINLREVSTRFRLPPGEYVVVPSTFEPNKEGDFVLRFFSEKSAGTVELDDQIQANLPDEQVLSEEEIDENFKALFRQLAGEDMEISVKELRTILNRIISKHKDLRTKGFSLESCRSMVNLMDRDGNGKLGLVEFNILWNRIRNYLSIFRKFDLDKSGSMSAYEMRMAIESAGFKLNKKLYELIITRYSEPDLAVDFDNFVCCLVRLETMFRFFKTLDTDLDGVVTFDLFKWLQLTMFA
T1 sequence (P04632 1-268 partner): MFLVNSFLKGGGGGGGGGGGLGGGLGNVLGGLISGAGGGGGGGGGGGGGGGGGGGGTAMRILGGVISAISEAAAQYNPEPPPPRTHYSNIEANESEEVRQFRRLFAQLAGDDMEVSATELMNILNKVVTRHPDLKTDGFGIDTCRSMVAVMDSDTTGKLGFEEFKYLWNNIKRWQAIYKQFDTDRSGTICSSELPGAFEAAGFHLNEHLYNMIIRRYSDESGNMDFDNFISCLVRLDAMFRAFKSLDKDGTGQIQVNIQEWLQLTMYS
Procedure, shortened: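 Human μ-calpain (0.5 μg) with 250 μM Suc-Leu-Tyr-AMC in 100 mM imidazole pH 7.5, 5 mM cysteine, 5 mM CaCl2. AMC fluorescence (ex 360/em 440 nm) followed 30 min at 30 °C; IC50 determined graphically from initial velocities versus inhibitor concentration.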

[2] = tested on: cellular calpains in C2C12 myoblasts; experiment: Calpain inhibition assay in C2C12 myoblasts; assay type: cell-based; details: 2 h incubation, calcium ionophore Br-A-23187, read-out: Calp I IC50 Myoblast
Procedure, shortened: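 Confluent C2C12 myoblasts in fusion medium (DMEM, 5% horse serum) exposed to compound for 2 h at 37 °C, then loaded with 400 μM Suc-Leu-Tyr-AMC for 20 min at room temperature in buffer with 4 mM CaCl2, HEPES pH 7.25. Calpains activated by Br-A-23187 ionophore (20 μM in added buffer); AMC fluorescence read each minute for 60 min at 37 °C to derive IC50.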

[3] = target: T2, 20S Proteasome (Oryctolagus cuniculus, UniProt G1T4Q9); experiment: 20S Proteasome assay; assay type: biochemical, Rabbit; details: substrate Suc-Leu-Leu-Val-Tyr-AMC; read-out: 20S Prot IC50
T2 sequence (G1T4Q9 1-263): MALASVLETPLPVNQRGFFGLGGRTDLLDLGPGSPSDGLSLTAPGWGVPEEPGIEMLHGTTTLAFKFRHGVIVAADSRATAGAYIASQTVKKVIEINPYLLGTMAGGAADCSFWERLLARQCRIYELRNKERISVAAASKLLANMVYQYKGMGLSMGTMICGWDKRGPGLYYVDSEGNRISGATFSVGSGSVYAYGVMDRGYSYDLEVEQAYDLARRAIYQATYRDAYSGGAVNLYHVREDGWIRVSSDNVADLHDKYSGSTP
Procedure: 25 μl of a reaction buffer containing 400 μM of the fluorogenic substrate Suc-Leu-Leu-Val-Tyr-AMC (Bachem) are dispensed per well of a white microtiter plate. Test compounds dissolved in 0.5 μl DMSO are added. To start the reaction; 25 μl of reaction buffer containing 35 ng of enzyme (20S Proteasome, Rabbit, Calbiochem) are added. The increase in fluorescence (excitation at 360 nm; emission at 440 nm) is measured over 30 min at 30° C. at 30″. The IC50's are then determined from the slopes.

[4] = tested on: Primary fibroblasts from donors with Friedreich Ataxia (FRDA); experiment: BSO assay (cell viability under BSO-induced oxidative stress); assay type: cell-based, human; details: 24 h preincubation, 1 mM BSO; for EC50: Homo sapiens, Fibroblast
Procedure: Primary fibroblasts were derived from donors with molecular diagnosis for Friedreich Ataxia (FRDA) and control donors with no mitochondrial disease. Cell lines were obtained from Coriell Cell Repositories (Camden, N.J.; catalog numbers GM04078, GM08402 and GM08399 respectively). All cell types were diagnosed on the molecular level for intronic […] triplet repeat length of at least 400-450 repeats using a PCR-based method. Experiments were carried out as described in the literature (M. L. Jauslin et al., Human Mol. Genet., 2002, 11, 3055-3063): Cells were seeded in microtiter plates at a density of 4'000 cells per 100 μl in growth medium consisting of 25% (v/v) M199 EBS and 64% (v/v) MEM EBS without phenol red (Bioconcept, Allschwil, Switzerland) supplemented with 10% (v/v) fetal calf serum (PAA Laboratories, Linz, Austria), 100 U/ml penicillin, 100 μg/ml streptomycin (PAA Laboratories, Linz, Austria), 10 μg/ml insulin (Sigma, Buchs, Switzerland), 10 ng/ml EGF (Sigma, Buchs, Switzerland), 10 ng/ml bFGF (PreproTech, Rocky Hill, N.J.) and 2 mM glutamine (Sigma, Buchs, Switzerland). The cells were incubated in the presence of various test compounds for 24 h before addition of L-buthionine-(S,R)-sulfoximine (BSO) to a final concentration of 1 mM. Cell viability was measured after the first signs of toxicity appeared in the BSO-treated controls (typically after 16 to 48 h). The cells were stained for 60 min at room temperature in PBS with 1.2 μM calcein AM and 4 μM ethidium homodimer (Live/Dead assay, Molecular Probes, Eugene, Oreg.). Fluorescence intensity was measured with a Gemini Spectramax XS spectrofluorimeter (Molecular Devices, Sunnyvale, Calif.) using excitation and emission wavelengths of 485 nm and 525 nm respectively.

Structure (SMILES)	IC50 [1]	IC50 [2]	IC50 [3]	EC50 [4]	BSO EC50 [4]
CCNC(=O)C(=O)[C@H](Cc1ccc(Cl)cc1)NC(=O)[C@@H](NC(=O)CCCCC1CCSS1)C(C)C (stereo partly drawn) [Example 1]	0.06 µM	0.35 µM	0.5 µM	0.35 µM	
CCNC(=O)C(=O)[C@H](Cc1ccc(Cl)cc1)NC(=O)[C@@H](NC(=O)CCCCC1CCCS1)C(C)C (stereo partly drawn) [Example 3]	0.1 µM	0.4 µM	0.11 µM	4 µM	
CCNC(=O)C(=O)[C@H](Cc1ccc(F)cc1)NC(=O)[C@H](CC(C)C)NC(=O)CCCCC1CCSS1 (stereo partly drawn) [Example 39]	0.035 µM	3 µM	0.8 µM		inactive
CCNC(=O)C(=O)[C@H](Cc1ccc(F)c(F)c1)NC(=O)[C@H](CC(C)C)NC(=O)CCCCC1CCSS1 (stereo partly drawn) [Example 47]	0.04 µM	0.4 µM	0.45 µM		
CCNC(=O)C(=O)[C@H](Cc1ccc(Br)cc1)NC(=O)[C@@H](NC(=O)CCCCC1CCSS1)C(C)C (stereo partly drawn) [Example 53]	0.06 µM	0.2 µM	0.18 µM	0.4 µM	
CC(C)[C@H](NC(=O)CCCCC1CCSS1)C(=O)N[C@@H](Cc1ccc(Br)cc1)C(=O)C(=O)NC1CCCCC1 (stereo partly drawn) [Example 57]	0.075 µM	0.31 µM	> 1 µM		inactive
CCNC(=O)C(=O)[C@H](Cc1ccc(Br)cc1)NC(=O)[C@H](CC(C)C)NC(=O)CCCCC1CCS[S+]1[O-] (stereo partly drawn) [Example 65]	0.015 µM	1.5 µM	0.4 µM	1 µM	
CCNC(=O)C(=O)[C@H](Cc1ccc(OC)cc1)NC(=O)[C@@H](NC(=O)CCCCC1CCC[S+]1[O-])C(C)C (stereo partly drawn) [Example 87]	0.4 µM	1.2 µM	> 10 µM	9 µM	
CCNC(=O)C(=O)[C@H](Cc1ccc(OC)cc1)NC(=O)[C@H](CC(C)C)NC(=O)CCCCC1CCSS1 (stereo partly drawn) [Example 94]	0.015 µM	1 µM	0.4 µM	1.5 µM	
CCNC(=O)C(=O)[C@H](Cc1ccc(C)cc1)NC(=O)[C@@H](NC(=O)CCCCC1CCSS1)C(C)C (stereo partly drawn) [Example 104]	0.07 µM	0.35 µM	0.18 µM	0.3 µM	
CCNC(=O)C(=O)[C@H](Cc1ccc(C)cc1)NC(=O)[C@H](CC(C)C)NC(=O)CCCCC1CCSS1 (stereo partly drawn) [Example 110]	0.03 µM	0.5 µM	0.28 µM	0.5 µM	
CCNC(=O)C(=O)[C@H](Cc1ccc(C(F)(F)F)cc1)NC(=O)[C@H](CC(C)C)NC(=O)CCCCC1CCSS1 (stereo partly drawn) [Example 124]	0.075 µM	1.1 µM	> 1 µM	5 µM	
Cc1ccc(S(=O)(=O)CNC(=O)C(=O)[C@H](Cc2ccccc2)NC(=O)[C@@H](NC(=O)CCCCC2CCSS2)C(C)C)cc1 (stereo partly drawn) [Example 140]	0.15 µM	0.45 µM	0.08 µM	0.5 µM	
CCNC(=O)C(=O)[C@H](CC1CCCCC1)NC(=O)[C@H](CC(C)C)NC(=O)CCCCC1CCSS1 (stereo partly drawn) [Example 151]	0.035 µM	1.8 µM	> 100 µM		
CCNC(=O)C(=O)[C@H](Cc1ccc(Br)cc1)NC(=O)[C@H](CC(C)C)NC(=O)CNC(=O)CCCCC1CCS[S+]1[O-] (stereo partly drawn) [Example 187]	0.015 µM	7.5 µM		20 µM	
CCNC(=O)C(=O)[C@H](Cc1ccc(OC)cc1)NC(=O)[C@@H](NC(=O)C1(NC(=O)CCCCC2CCSS2)CC1)C(C)C (stereo partly drawn) [Example 192]	0.37 µM	3.2 µM		1.5 µM	
CCNC(=O)C(=O)[C@H](Cc1ccc(OC)cc1)NC(=O)[C@@H](NC(=O)C1(NC(=O)CCCCC2CCSS2)CCCCC1)C(C)C (stereo partly drawn) [Example 195]	0.17 µM	1.5 µM		5 µM	
CCNC(=O)C(=O)[C@H](Cc1ccc(OC)cc1)NC(=O)[C@@H](NC(=O)c1ccc(NC(=O)CCCCC2CCSS2)cc1)C(C)C (stereo partly drawn) [Example 196]	> 1 µM	0.4 µM		2 µM	
CCNC(=O)C(=O)[C@H](Cc1ccc(OC)cc1)NC(=O)[C@@H](NC(=O)c1cccc(NC(=O)CCCCC2CCSS2)c1)C(C)C (stereo partly drawn) [Example 197]	0.046 µM	0.25 µM	0.42 µM		
CCNC(=O)C(=O)[C@H](Cc1ccc(OC)cc1)NC(=O)[C@@H](NC(=O)c1ccccc1NC(=O)CCCCC1CCSS1)C(C)C (stereo partly drawn) [Example 198]	0.026 µM	1.8 µM		8 µM	
CCNC(=O)C(=O)[C@H](Cc1ccc(OC)cc1)NC(=O)[C@@H](NC(=O)c1ccccc1NC(=O)CCCCC1CCS[S+]1[O-])C(C)C (stereo partly drawn) [Example 199]	0.026 µM	1.2 µM		4 µM	
CCNC(=O)C(=O)[C@H](Cc1ccccc1)NC(=O)[C@@H](NC(=O)CNC(=O)CCCCC1CCSS1)C(C)C (stereo partly drawn) [Example 207]	0.047 µM	8 µM		30 µM	
CC(C)[C@H](NC(=O)CNC(=O)CCCCC1CCSS1)C(=O)N[C@@H](Cc1ccccc1)C(=O)C(=O)NCc1ccccc1 (stereo partly drawn) [Example 209]	0.06 µM	2.5 µM		> 100 µM	
CCNC(=O)C(=O)[C@H](Cc1ccccc1)NC(=O)[C@H](CC(C)C)NC(=O)CNC(=O)CCCCC1CCSS1 (stereo partly drawn) [Example 210]	0.04 µM	4.5 µM		10 µM	
CCNC(=O)C(=O)[C@H](Cc1ccccc1)NC(=O)[C@H](CC(C)C)NC(=O)CNC(=O)CCCCC1CCS[S+]1[O-] (stereo partly drawn) [Example 211]	0.025 µM	15 µM		4 µM	
